Data from US20140099257A1, “Androgen Suppression, Prostate-Specific Membrane Antigen and the Concept of Conditionally Enhanced Vulnerability” (CORNELL UNIVERSITY, priority 2012, published 2014).

System: AR
Assay: Silencing of AR with siRNA in prostate cancer cell lines; AR, PSMA expression (FACS, western blot) and PSA secretion
Assay type: cell-based, human
Conditions: FACS analysis of LNCaP, MDA-Pca-2b and LAPC-4 cells (FIG. 6)
Procedure: For western blots, cells were lysed with Cell Lysis Buffer (Cell Signaling Technology, Danvers, Mass.) containing 1 mM phenylmethylsulphonyl fluoride (EMD Chemicals, Gibbstown, N.J.). Equal amounts of protein were applied in each well on a 10% Tris-HCl gel (Bio-Rad Laboratories, Hercules, Calif.). The proteins were transferred onto Immobilon-P Membranes (Millipore, Billerica, Mass.), after which the filters were probed with the following reagents: murine anti-PSMA mAb J591, murine mAb anti-AR (AR441), rabbit anti-human AR, murine mAb anti-human beta-actin, and/or goat polyclonal anti-GAPDH. For quantitative western blots, the Li-cor Odyssey Infrared Imaging System (Lincoln, Nebr.) was used. With this system, two different proteins of the same molecular weight (e.g., PSMA and AR) can be detected simultaneously and quantified on the same blot using two different antibodies from two different species (mouse and rabbit) followed by detection with two IRDye labeled secondary antibodies. […] After washing, the membranes were scanned and the bands were quantified with the Odyssey Infrared Imaging System.
Fluorescence-activated cell sorting (FACS) analysis was also employed in these examples0. […]

For “non-targeted-siRNA: non-targeting control siRNA 5′-CCUACGCCACCAAUUUCGU-3′ (Dharmacon) (chemistry not given here)”, the AR expression was “did not affect expression” and the PSMA expression was “did not affect expression”.
